The record followed here is the METLIN SMRT retention time set (Domingo-Almenara et al. 2019).

The nature of this data set: gradient 5% acetonitrile 3 min, to 50% in 2 min, to 85% in 15 min, held 3 min, 100 µL/min. Conditions: column: Zorbax Extend-C18 2.1 x 50 mm; eluents: water / acetonitrile, 0.1% formic acid. The procedure, abridged: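 The mobile phases were water and acetonitrile, each with 0.1% formic acid, pumped at 100 μL/min through a Zorbax Extend-C18 column (2.1 × 50 mm, 1.8 μm). Pure standards were injected as mixtures of ~100 molecules and detected by a quadrupole time-of-flight mass spectrometer in positive and negative ionization mode. Retention time came from computationally picked adduct peaks, each inspected by hand.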
Turning to `Fc1ccc(Cl)cc1-c1nnc(-c2ccc(-n3ccnc3)nc2)o1`, the RP-LC retention time was 681 s.

On to `CCCN(CC1CC1)C(=O)CCC[C@@H]1[C@H]2CCCN3CCC[C@@H](CN1C(C)=O)[C@@H]23`, for which the RP-LC retention time worked out at 618 s.

`CCC(C)(C)C(=O)N1CCC2(CCc3nn(Cc4ccccc4)c(=O)n3CC2)CC1` returned an RP-LC retention time of 811 s.

As for `COCCOC(=O)c1c(C)oc2ccc(OC(=O)C3CC3)cc12`, the RP-LC retention time stood at 941 s.

With `O=C(c1cnn2cccnc12)N1CCCC1c1ccc(Cl)cc1` (stereo not given), the RP-LC retention time is 766 s.

`Cc1cccc(N2C(=O)CN(CCc3ccc(F)cc3)[C@H]3CS(=O)(=O)C[C@H]32)c1` gave an RP-LC retention time of 839 s.

Consider `CC1=NS(=O)(=O)N(C)C=C1C(=O)OCc1ccc(Cl)cc1`, for which the RP-LC retention time was 978 s.

`Cc1ccc(NS(=O)(=O)c2cc3n(c2)CCN(CC(C)C)C3=O)cc1F` had an RP-LC retention time of 840 s.

`CCOC(=O)c1nc(N(C)c2ccccc2C)c2ccccc2n1` returned an RP-LC retention time of 916 s.

As to `CC1CCCCN1CCCNC(=O)CN1C(=O)CCn2nc(-c3cn(C)c4ccccc34)cc21` (stereo not given), the RP-LC retention time is 564 s.

In the case of `CCN(CC)S(=O)(=O)c1ccc2c(c1)N(CC(=O)NCc1cccc(C)c1)C(=O)C1CCCCN21` (stereo not given), the RP-LC retention time worked out at 686 s.

Take `COCCCn1c(=O)c2ccccc2n(Cc2nc(-c3ccc(OC(C)C)cc3)no2)c1=O`: the RP-LC retention time is 1120 s.

As for `COc1c(C(=O)NCc2ccc(C)o2)sc2ccc(Cl)cc12`, the RP-LC retention time was determined as 1120 s.

Take `Cc1ccc(C)c(CN2CCn3c(nn(CC4CC4)c3=O)C2)c1`: the RP-LC retention time was 879 s.

The compound `O=C(CCC1CCN(c2cc(NC3CC3)ncn2)CC1)NCc1ccc(Cl)cc1` returned an RP-LC retention time of 680 s.

Take `COc1ccc(N2CC(c3noc(-c4ccc(C)cc4)n3)CC2=O)cc1OC` (stereo not given): the RP-LC retention time worked out at 909 s.

`O=C(Cn1cccc1-c1nnc(C2CCC2)o1)NCc1cccc(Br)c1` came in with an RP-LC retention time of 937 s.

Compound `CC(C)CCNC(=O)Cn1ccn2nc(-c3ccccc3)c(CO)c2c1=O` had an RP-LC retention time of 758 s.

The compound `COc1cccc(-c2noc(Cn3nc(-c4ccccc4)ccc3=O)n2)c1` yielded an RP-LC retention time of 998 s.

In the case of `Cc1cccc(CN2CCn3c(nnc3[C@@H]3C[C@@H](O)CN3Cc3cccnc3)C2)c1`, the RP-LC retention time was 586 s.

The compound `Cc1ccc(S(=O)(=O)N2CCC(CCNC(=O)NC3CCCCC3)CC2)cc1` had an RP-LC retention time of 905 s.

In turn, `Cc1noc(-c2cc(=O)n(CC(=O)Nc3cccc(Cl)c3C)c3ccccc23)n1` yielded an RP-LC retention time of 923 s.

Compound `N#Cc1nc(-c2ccc(COc3ccc(Cl)cc3)o2)oc1NCCCn1ccnc1` yielded an RP-LC retention time of 627 s.

With `O=C(Nc1cc(F)ccc1F)c1c(O)c2cccnc2n(Cc2ccccc2)c1=O`, the RP-LC retention time is 1170 s.

Consider `Cc1oc(C2CCN(C(=O)COc3ccccc3)CC2)nc1C(=O)N1CCCCC1`, for which the RP-LC retention time stood at 796 s.

In turn, `CCn1c(=O)c(NCCc2ccc(OC)c(OC)c2)nc2ccncc21` registered an RP-LC retention time of 618 s.

Regarding `CCN1CCN(c2c(S(=O)(=O)c3ccccc3)cnc3cc(OC)c(OC)cc23)CC1`, the RP-LC retention time was found to be 623 s.

Consider `O=C(NCc1ccc2c(c1)OCO2)c1nnc(-c2ccc(S(=O)(=O)N3CCCC3)cc2)o1`, for which the RP-LC retention time was found to be 854 s.

Compound `CCCn1ncc(N2CCC(C(=O)N3CCN(C(C)=O)CC3)CC2)cc1=O` had an RP-LC retention time of 591 s.

For `COc1ncc(C(=O)Nc2cccc(Cl)c2)c(C)n1`, the RP-LC retention time worked out at 812 s.

The compound `C#CCN[C@@H]1CCc2ccccc21` yielded an RP-LC retention time of 613 s.

The compound `CC1(C(=O)NC2CCCCCC2)Cn2c(cc3occc32)C(=O)N1Cc1ccccn1` (stereo not given) gave an RP-LC retention time of 766 s.

As for `CC1CCC(NC(=O)C2CCN(S(=O)(=O)c3ccc4c(c3)NC(=O)C(C)O4)CC2)CC1` (stereo not given), the RP-LC retention time worked out at 876 s.

The compound `CCC(C)NS(=O)(=O)c1cc(-c2c(C)noc2NC(C)=O)ccc1OC` (stereo not given) showed an RP-LC retention time of 720 s.

`COc1ccccc1-c1nc(Cn2cccc(S(=O)(=O)N3CCCC3)c2=O)no1`: the RP-LC retention time came out at 736 s.

Take `Cc1nc(-c2ccc(Cl)cc2)sc1CCNC(=O)c1ccco1`: the RP-LC retention time stood at 946 s.

`CN(C)S(=O)(=O)N1CCCC(c2nc(-c3ccccc3)no2)CCNC(=O)CC1` (stereo not given) yielded an RP-LC retention time of 782 s.

On to `Cc1ccc(C)c(-c2cc3c(=O)n(Cc4noc(-c5ccccc5)n4)ccn3n2)c1`, for which the RP-LC retention time came to 860 s.

Turning to `Cc1sc(NC(=O)C2CCCCC2)nc1-c1ccc2c(c1)NC(=O)CO2`, the RP-LC retention time amounted to 921 s.

`COc1ccccc1N1CCN(C(=O)Cn2nc(C(=O)N3CCOCC3)c3ccccc32)CC1` had an RP-LC retention time of 718 s.

`CCc1nc(-c2csc(S(=O)(=O)N3CCCC(C(=O)NC4CCC(C)CC4)C3)c2)no1` (stereo not given) came in with an RP-LC retention time of 1100 s.

Take `CC(=O)N1CCc2ccc(C(=O)N3CCOCC3)cc21`: the RP-LC retention time was determined as 602 s.

Compound `O=C(CCC1CCCCC1)Nc1cccc(-c2cn3cccnc3n2)c1` returned an RP-LC retention time of 823 s.

Take `COc1ccc(N2CCN(C(=O)c3cc4c(s3)CN(C3CCCC3)C4)CC2)cc1`: the RP-LC retention time was 623 s.

As for `Cc1noc(-c2nc(-c3cccnc3)no2)n1`, the RP-LC retention time is 736 s.

In turn, `Cc1ccc(CNC(=O)C2CCN(c3cncnc3N3CCCCC3)CC2)o1` had an RP-LC retention time of 643 s.

As for `CNS(=O)(=O)c1cccnc1Nc1cccc(C(C)C)c1`, the RP-LC retention time was found to be 1080 s.

`Cc1cc(N(C)C)n2nc(CN3CCN(c4cccc(Cl)c4)CC3)nc2n1` registered an RP-LC retention time of 635 s.

With `CC1CCN(S(=O)(=O)c2ccc3c(c2)CCCC(=O)N3CC(=O)NC2CCCCC2)CC1`, the RP-LC retention time was 987 s.

For `Cc1cc(C)cc(C(=O)N2CC3CN(S(=O)(=O)c4ccccc4)CC(C2)O3)c1`, the RP-LC retention time amounted to 892 s.

Compound `COc1ccc(-c2nc3ncccn3c2NCc2ccc(C)cc2)cc1OC` showed an RP-LC retention time of 709 s.

`COc1ccc(-c2noc(C3CCCN3C(=O)COc3ccccc3)n2)cc1` (stereo not given) yielded an RP-LC retention time of 936 s.

As to `O=C(Nc1nccs1)C1CCN(C(=O)Cn2ccc3ccccc32)CC1`, the RP-LC retention time was 719 s.

On to `Cc1cc(N2C=C(C(=O)N3CCOCC3)S(=O)(=O)c3ccc(F)cc32)ccc1F`, for which the RP-LC retention time was found to be 814 s.

In turn, `Cc1nc(-c2ccc(-c3noc(CNC(=O)c4ccco4)n3)cc2)cs1` displayed an RP-LC retention time of 837 s.

`COc1ccccc1NC(=O)N1CCOc2ccc(C)cc21` displayed an RP-LC retention time of 1040 s.

On to `Cc1ccc2nc(NC(C)(C)CO)nc(-c3ccccc3)c2c1`, for which the RP-LC retention time is 644 s.

The compound `COCCn1cc(C(=O)NCC(C)C)c2nn(-c3ccccc3)c(=O)c-2c1` showed an RP-LC retention time of 851 s.

As to `CCOc1ccccc1N1CCN(CC(O)c2ccc3c(c2)OCO3)CC1` (stereo not given), the RP-LC retention time came out at 664 s.

On to `CCN1CCc2nc(NC(=O)C3CCN(S(=O)(=O)c4cccs4)CC3)sc2C1`, for which the RP-LC retention time came out at 634 s.
